Measured values reported in patent EP0847397B1, “WATER-SOLUBLE C-RING ANALOGUES OF 20 (S)-CAMPTOTHECIN” (DR. REDDY'S RESEARCH FOUNDATION, priority 1996, dated 1997).

What was measured:
[1] = Lactone stability in whole blood (HPLC); format: in vitro ADME; conditions: human, whole blood, 1 μM, 37°C, lactone peak area relative to zero time (100%); read-out: Lactone Stability in Whole Blood (after 3 hours)
Procedure: 2. Lactone Stability in whole blood:
2 ml of blood from a healthy volunteer was collected in a tube containing 40 µl of heparin (572 IU) to prevent coagulation, 4 mM and 40 µM working solutions of the drug in DMSO were prepared and added to aliquots of whole blood to give final concentration of 100 µM and 1 µM respectively. The drug is incubated in whole blood at 37°C and 20 µl samples are collected into 180 µl of chilled methanol (-30°C) at different time intervals (0, 1, 2 & 3 hrs). Vortex and then centrifuge at 11000 rpm for 3 min in a microcentrifuge at room temperature. Dilute 100 µl of the supernatant with water to 300-500 µl depending upon the signal response (UV for 100 µM concentration and fluoroscence for 1 µM concentration) of the compound. 200 µl of the diluted sample is injected on to the HPLC column previously equilibrated with the mobile phase. The area under peak corrsponding to lactone forms is measured. Zero time peak area is taken as 100%, and the proportion of lactone peak area at different time points is calculated to determine the equilibrium lactone stability as obtained by consistent lactone proportion over two successive time points. (Biochemistry, 1994; 33:10325-10336 and J. Pharm. Sci., 1995; 84:518-519).

U 251 = assay: NCI in vitro 60 human tumor cell line assay; format: cell-based; conditions: U-251, 48 h, read-out: Total Growth Inhibition (TGI)
Procedure: (§1) Each test compound was screened against a battery of 60 human cell lines obtained from eight organs. In a typical procedure, the cell suspensions that were diluted according to the particular cell type and the expected target cell density (5000-40,000 cells per well based on cell growth characteristics) were added into 96-well microtiter plates. Inoculates were allowed a preincubation period of 24h at 37°C. for stabilization. Dilutions at twice the intended test concentrations were added at time zero in 100-µl aliquots to microtiter plate wells. Usually test compounds were evaluated at five 10-fold dilutions. The highest well concentration used in the test is 10^-4M. The cells are then incubated in the presence of drug (the test compound) for further 48h in 5% CO2 atmosphere and 100% humidity. At the end of this time, the adherent cells are fixed to the plate by means of trichloroacetic acid, and after a number of washes, the cell layer is treated with the protein stain Sulforhodamine B. The optical density which is proportional to protein mass, is then read by automated spectrophotometric plate readers at a wavelength of 515 nm. Readings are transferred to a microcomputer and final reports are generated using especially developed software.

EKVX = assay: NCI in vitro 60 human tumor cell line assay; format: cell-based; conditions: 48 h, read-out: Total Growth Inhibition (TGI)
Procedure: as §1

H 322M = assay: NCI in vitro 60 human tumor cell line assay; format: cell-based; conditions: NCI-H322M, 48 h, read-out: Total Growth Inhibition (TGI)
Procedure: as §1

SK OV3 = assay: NCI in vitro 60 human tumor cell line assay; format: cell-based; conditions: SK-OV-3, 48 h, read-out: Total Growth Inhibition (TGI)
Procedure: (§2) Each test compound was screened against a battery of 60 human cell lines obtained from eight organs. In a typical procedure, the cell suspensions that were diluted according to the particular cell type and the expected target cell density (5000-40,000 cells per well based on cell growth characteristics) were added into 96-well microtiter plates. Inoculates were allowed a preincubation period of 24h at 37°C. for stabilization. Dilutions at twice the intended test concentrations were added at time zero in 100-µl aliquots to microtiter plate wells. Usually test compounds were evaluated at five 10-fold dilutions. The highest well concentration used in the test is 10^-4M. The cells are then incubated in the presence of drug (the test compound) for further 48h in 5% CO2 atmosphere and 100% humidity. At the end of this time, the adherent cells are fixed to the plate by means of trichloroacetic acid, and after a number of washes, the cell layer is treated with the protein stain Sulforhodamine B. The optical density which is proportional to protein mass, is then read by automated spectrophotometric plate readers at a wavelength of 515 nm.

OVCAR 8 = assay: NCI in vitro 60 human tumor cell line assay; format: cell-based; conditions: OVCAR-8, 48 h, read-out: Total Growth Inhibition (TGI)
Procedure: as §2

UO 31 = assay: NCI in vitro 60 human tumor cell line assay; format: cell-based; conditions: UO-31, 48 h, read-out: Total Growth Inhibition (TGI)
Procedure: as §1

SF 268 = assay: NCI in vitro 60 human tumor cell line assay; format: cell-based; conditions: SF-268, 48 h, read-out: Total Growth Inhibition (TGI)
Procedure: as §2

[2] = system: NCI's 60 human tumor cell line assay; assay: cells; format: cell-based; conditions: 60 cell, 48 h, read-out: IC50 (mean GI50 against NCI's 60 human tumor cell line assay)
Procedure: as §1

HOP 62 = assay: NCI in vitro 60 human tumor cell line assay; format: cell-based; conditions: HOP-62, 48 h, read-out: Total Growth Inhibition (TGI)
H 226 = assay: NCI in vitro 60 human tumor cell line assay; format: cell-based; conditions: NCI-H226, 48 h, read-out: Total Growth Inhibition (TGI)
Procedure: as §1

H 23 = assay: NCI in vitro 60 human tumor cell line assay; format: cell-based; conditions: NCI-H23, 48 h, read-out: Total Growth Inhibition (TGI)
Procedure: as §1

H 522 = assay: NCI in vitro 60 human tumor cell line assay; format: cell-based; conditions: NCI-H522, 48 h, read-out: Total Growth Inhibition (TGI)
Procedure: as §1

COLO 205 = assay: NCI in vitro 60 human tumor cell line assay; format: cell-based; conditions: COLO 205, 48 h, read-out: Total Growth Inhibition (TGI)
Procedure: as §1

HCT 116 = assay: NCI in vitro 60 human tumor cell line assay; format: cell-based; conditions: HCT-116, 48 h, read-out: Total Growth Inhibition (TGI)
KM 12 = assay: NCI in vitro 60 human tumor cell line assay; format: cell-based; conditions: KM12, 48 h, read-out: Total Growth Inhibition (TGI)
Procedure: as §1

MCF 7/ ADR = assay: NCI in vitro 60 human tumor cell line assay; format: cell-based; conditions: Homo sapiens, NCI/ADR-RES, 48 h, read-out: Total Growth Inhibition (TGI)
Procedure: as §1

MDA-MB-435 = assay: NCI in vitro 60 human tumor cell line assay; format: cell-based; conditions: MDA-MB-435, 48 h, read-out: Total Growth Inhibition (TGI)
MDA-N = assay: NCI in vitro 60 human tumor cell line assay; format: cell-based; conditions: BREAST, 48h, read-out: Total Growth Inhibition (TGI)
Procedure: as §2

BT 549 = assay: NCI in vitro 60 human tumor cell line assay; format: cell-based; conditions: BT-549, 48 h, read-out: Total Growth Inhibition (TGI)
Procedure: as §1

T 47D = assay: NCI in vitro 60 human tumor cell line assay; format: cell-based; conditions: T47D, 48 h, read-out: Total Growth Inhibition (TGI)
Procedure: as §1

CC[C@@]1(O)C(=O)OCc2c1cc1n(c2=O)C(OCCO)c2cc3ccccc3nc2-1 (stereo partly drawn) [Example 26, 5-(2'-Hydroxyethoxy)camptothecin]
remaining at 3 h, 1 µM [1]: 5.3% | IC (TGI) (U 251): 7.58 µM | IC (TGI) (EKVX): 63 µM | IC (TGI) (H 322M): 31.6 µM | IC (TGI) (SK OV3): 3.8 µM | IC (TGI) (OVCAR 8): 13.4 µM | IC (TGI) (UO 31): 3.89 µM | IC (TGI) (SF 268): 30.9 µM

CC[C@@]1(O)C(=O)OCc2c1cc1n(c2=O)C(OCC(F)(F)F)c2cc3cc(O)ccc3nc2-1 (stereo partly drawn) [Example 27, 10-Hydroxy-5-trifluoroethoxycamptothecin]
mean GI50 [2]: 0.38 µM | IC (TGI) (HOP 62): 4.95 µM | IC (TGI) (H 226): 4.75 µM | IC (TGI) (H 23): 0.91 µM | IC (TGI) (H 522): 7.66 µM | IC (TGI) (COLO 205): 19.5 µM | IC (TGI) (HCT 116): 4.06 µM | IC (TGI) (KM 12): 10.6 µM | IC (TGI) (MCF 7/ ADR): 1.25 µM | IC (TGI) (MDA-MB-435): 9.62 µM | IC (TGI) (MDA-N): 11 µM | IC (TGI) (BT 549): 11.4 µM | IC (TGI) (T 47D): 0.81 µM
